According to patent US8592603B2, “Synthesis of 2-(4-aminophenyl) benzothiazole derivatives and use thereof” (Kaohsiung Medical University, priority 2011, dated 2013):

Legend:
[1] = system: human dermal fibroblast cells; test: Morphology observation and annexin V/PI binding assay on normal cells; format: cell-based; settings: 4 μM for 4 h, 1 J/cm2 UVA (FIG. 4C)
Description: (A) The increased enzymatic activities of the caspase-3 in apoptotic were determined by colorimetric reaction. The cleavage of peptide by the caspase releases the chromophore pNA (p-nitroaniline), which can be quantified spectrophotometrically at a wavelength of 405 nm. (B) Dot plots for BCC cells treated with various concentrations of 6f-UVA and then stained with PI and an annexin V-FITC conjugate specifically detecting the exposure of PS residues at the cell surface. (C) Morphological observation and annexin V/PI double stain were used for the detection of fibroblasts apoptosis. Approximately 10000 cells from each group were analyzed by flow cytometry. Data shown are of a representative experiment repeated three times with similar results. ** p<0.01 as compared with the control.
To assess the simultaneous observation of early phase of apoptotic and necrotic features, BCC cells were treated with various concentrations (0-4 μM) of Formula 6f for 4 h before irradiation. Twenty-four hours after irradiation, cells were harvested by trypsinization and centrifugation and measured by cytometry by adding annexin V-FITC to […] per sample according to the manufacturer's specifications (Bender MedSystems, Vienna, Austria). Simultaneously, the cells were stained with PI. Flow cytometry data were analyzed by the WinMDI software.
BCC or fibroblasts (5×10^5 cells/well) seeded on 6 well plate. […]

BCC cells [2] = test: Determination of intracellular ROS level (DCFH-DA); format: cell-based, human; settings: BCC cells, 6f-UVA, DCFH-DA probe (FIG. 5A)
Description: (§1) (A) 6f-UVA induced ROS generation in BCC cells. Histogram of fluorescence vs cell count in BCC cells with various concentrations of 6f-UVA and stained with DCFH-DA. As a control, ROS was measured in the presence of catalase, a H2O2 scavenger. (B) The ΔΨmt of BCC cells after exposure to 6f-UVA. Cells were treated with 0, 2, and 4 μM Formula 6f for 4 h followed by 1 J/cm2 UVA irradiation, then stained with DiOC6 and analyzed immediately by flow cytometry as described under Materials and Methods. The number in M1 indicates the percentage of cells with reduced ΔΨmt. Approximately 10000 cells from each group were analyzed by flow cytometry. (C) Relative ATP levels were calculated as the percentage of the 0 μM level. Similar results were obtained in three independent experiments. *p<0.05, ** p<0.01 as compared with the control.
To evaluate intracellular reactive oxygen species (ROS) levels, 2′,7′-dichlorofluorescein diacetate (DCFH-DA, Molecular Probes) fluorescent dye was used to clarify this issue. The nonpolar DCFH-DA is converted to the polar derivative DCFH by esterases when it is taken up by the cell. DCFH is nonfluorescent but is rapidly oxidized to the highly fluorescent DCF by intracellular H2O2 or nitric oxide. […] The fluorescence of the samples was measured with a flow cytometer. The 2′,7′-dichlorofluorescein (DCF) data were recorded using FL-1 photomultiplier.

BCC cells [3] = test: Assessment of mitochondrial membrane potential (DiOC6); format: cell-based, human; settings: dosages equal to or greater than 2 μM, 1 J/cm^2 UVA (FIG. 5B)
Description: as §1
BCC cells were cultured in 35-mm dishes and allowed to reach exponential growth for 24 h before treatment. Cells were pretreated with […] Formula 6f for 4 h before 1 J/cm^2 UVA irradiation. The medium was removed and the adherent cells trypsinized. […] The samples were analyzed immediately for fluorescence (FL-1 detector, filter 530/30 nm band pass) on a FACScan flow cytometer (Elite ESP, Beckman Coulter, Brea, Calif.). Histograms were analyzed using Windows Multiple Document interface software (WinMDI).

JNK MAPK = test: Western blot analysis of MAPK phosphorylation: JNK; format: cell-based, human; settings: BCC cells, 6f-UVA (FIG. 6A)
Description: (A) After exposure to different concentration of 6f-UVA, cell lysates were collected and immunoblotted with specific antibodies as indicated. For the internal control, the same amounts of protein extract were also probed with antibody against actin. (B) As a control, the expression level of p-ERK was determined in the presence of oligomycin (25 μM) and ATP (1×10^−4M)
Total cell extracts from cultured BCC cells were obtained by lysing the cells in ice-cold RIPA buffer (1×PBS, 1% NP-40, 0.5% sodium deoxycholate, 0.1% SDS) containing 100 μg/mL PMSF, 2 μg/mL aprotinin, 2 μg/mL leupeptin and 100 μg/mL NaF. After centrifugation at 14,000 g for 30 min, protein in the supernatants was quantified by Bradford method (Bio-Rad). Forty micrograms of protein per lane was applied in 10% SDS-poly-acrylamide gel. After electrophoresis, protein was transferred from the gel to polyvinylidene difluoride (PVDF) membrane (Millipore, Bedford, Mass.). The membranes were blocked at room temperature for 1 h in PBS+0.1% Tween 20 (PBS-T) containing 5% skim milk. After being briefly rinsed with PBS-T, the blots were probed with respective primary antibodies at room temperature for 2 h or at 4° C. overnight. […] The relative amounts of specific proteins were quantified by densitometry scanning of X-ray films and analyzed by Eagle Eye Image System (Stratagene, La Jolla, Calif.)

- melting point: 181 to 183 °C
Structure (SMILES): Nc1ccc(-c2nc3ccc(C(F)(F)F)cc3s2)cc1 [Formula 6f, 2-(4-Aminophenyl)-6-trifluoromethylbenzothiazole]
- apoptotic activity on normal cells [1]: no significant apoptotic effect
- intracellular H2O2 levels (BCC cells [2]): significantly increased
- mitochondrial membrane potential (ΔΨmt) (BCC cells [3]): significant decline
- phosphorylation of JNK MAPK (JNK MAPK): did not stimulate the phosphorylation
